Key:
Assay in all cases: biochemical
[1] = target: human RNA N7-MTase (hRNMT) (Homo sapiens, UniProt O43148); format: biochemical; conditions: for inhibition at 50 µM: read-out: % of inhibition at 50 μM, hRNMT
[2] = target: vaccinia virus capping enzyme (D1-D12) (Vaccinia virus, UniProt P04298); conditions: read-out: % of inhibition at 50 μM, Vaccinia virus D1-D12
SARS-CoV nsp14 = SARS-CoV nsp14 (Severe acute respiratory syndrome coronavirus, UniProt P0C6X7); conditions: for IC50: SARS-Cov nap14 IC50; for inhibition at 50 µM: read-out: % of inhibition at 50 μM, SARs-Cov nsp 14

Chain of human RNA N7-MTase (hRNMT) (O43148 whole entry): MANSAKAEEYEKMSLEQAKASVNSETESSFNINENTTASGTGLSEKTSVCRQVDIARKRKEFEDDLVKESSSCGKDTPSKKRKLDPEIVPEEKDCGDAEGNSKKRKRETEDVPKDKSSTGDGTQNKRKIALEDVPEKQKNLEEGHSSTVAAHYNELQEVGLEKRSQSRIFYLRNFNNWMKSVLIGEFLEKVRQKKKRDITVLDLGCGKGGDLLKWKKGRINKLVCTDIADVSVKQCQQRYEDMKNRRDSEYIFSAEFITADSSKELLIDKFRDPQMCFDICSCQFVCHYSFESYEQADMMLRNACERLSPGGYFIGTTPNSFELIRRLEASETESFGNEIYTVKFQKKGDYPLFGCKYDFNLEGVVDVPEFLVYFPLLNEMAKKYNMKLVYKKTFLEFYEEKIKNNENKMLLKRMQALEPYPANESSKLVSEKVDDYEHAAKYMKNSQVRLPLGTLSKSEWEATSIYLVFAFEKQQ

O=C1CCc2c(sc(=S)n2-c2ccccc2)C1 [Compound 18, 3-Phenyl-2-thioxo-2,3,4,5-tetrahydrobenzo[d]thiazol-6(7H)-one]
IC50 [1]: 26.5 ± 6.28 µM | inhibition at 50 µM [1]: 65.5 ± 4.8% | inhibition at 50 µM [2]: 63.7 ± 7.08% | IC50 (SARS-CoV nsp14): 53.3 ± 5.62 µM | inhibition at 50 µM (SARS-CoV nsp14): 56.4 ± 5.73%

N#CC1=C(N)OC2=C(CC(=O)CC2)C1c1ccccc1Cl (stereo not shown) [Compound 4b, 2-Amino-4-(2-chlorophenyl)-6-oxo-5,6,7,8-tetrahydro-4H-chromene-3-carbonitrile]
% of inhibition at 50 μM, hRNMT [1]: high inhibitions | IC50 [1]: 0.41 ± 0.26 µM | inhibition at 50 µM [1]: 94.6 ± 7.68% | inhibition at 50 µM [2]: 98.3 ± 5.42% | IC50 (SARS-CoV nsp14): 0.62 ± 0.32 µM | inhibition at 50 µM (SARS-CoV nsp14): 87.5 ± 8.21%

CCOC1C(C#N)=C(N)OC2=C1c1sc(=S)n(-c3ccccc3)c1CC2 (stereo not shown) [Compound 20a, 7-Amino-9-ethoxy-3-phenyl-2-thioxo-3,4,5,9-tetrahydro-2H-chromeno[6,5-d]thiazole-8-carbonitrile]
IC50 [1]: 58.3 ± 4.95 µM | inhibition at 50 µM [1]: 70.4 ± 5.9% | inhibition at 50 µM [2]: 53.5 ± 8.25% | IC50 (SARS-CoV nsp14): 42.4 ± 5.63 µM | inhibition at 50 µM (SARS-CoV nsp14): 49.2 ± 6.73%

N#Cc1c(N)sc2c1CCc1c-2sc(=S)n1-c1ccccc1 [Compound 21a, 7-Amino-3-phenyl-2-thioxo-2,3,4,5-tetrahydrothieno[2',3':3,4]benzo[1,2-d]thiazole-6-carbonitrile]
IC50 [1]: 56.3 ± 4.62 µM | inhibition at 50 µM [1]: 60.3 ± 5.37% | inhibition at 50 µM [2]: 57.8 ± 5.82% | IC50 (SARS-CoV nsp14): 18.5 ± 2.68 µM | inhibition at 50 µM (SARS-CoV nsp14): 49.2 ± 6.73%

N#CC1=C(N)OC2=C(C=C(c3c(N)n[nH]c3N)CC2)C1c1ccccc1Cl (stereo not shown) [Compound 9a, 2-Amino-4-(2-chlorophenyl)-6-(3,5-diamino-1H-pyrazol-4-yl)-7,8-dihydro-4H-chromene-3-carbonitrile]
% of inhibition at 50 μM, hRNMT [1]: high inhibitions | IC50 [1]: < 0.05 µM | inhibition at 50 µM [1]: 93.6 ± 3.71% | inhibition at 50 µM [2]: 95.5 ± 3.23% | IC50 (SARS-CoV nsp14): 0.42 ± 0.19 µM | inhibition at 50 µM (SARS-CoV nsp14): 96.3 ± 2.4%

N#CC1=C(N)OC2=C(c3sc(=S)n(-c4ccccc4)c3CC2)C1c1ccccc1 (stereo not shown) [Compound 23a, 7-Amino-3,9-diphenyl-2-thioxo-3,4,5,9-tetrahydro-2H-chromeno[6,5-d]thiazole-8-carbonitrile]
IC50 [1]: 24.7 ± 5.47 µM | inhibition at 50 µM [1]: 42.7 ± 5.88% | inhibition at 50 µM [2]: 45.8 ± 6.38% | IC50 (SARS-CoV nsp14): 32.4 ± 4.58 µM | inhibition at 50 µM (SARS-CoV nsp14): 56.6 ± 6.72%

N#CC1=C(N)OC2=C(c3sc(N)c(C#N)c3CC2)C1c1ccccc1 (stereo not shown) [Compound 6a, 2,7-Diamino-9-phenyl-5,9-dihydro-4H-thieno[2,3-f]chromene-3,8-dicarbonitrile]
% of inhibition at 50 μM, hRNMT [1]: high inhibitions | IC50 [1]: 36.5 ± 6.27 µM | inhibition at 50 µM [1]: 80.3 ± 3.74% | inhibition at 50 µM [2]: 79.3 ± 5.37% | IC50 (SARS-CoV nsp14): 26.4 ± 3.57 µM | inhibition at 50 µM (SARS-CoV nsp14): 68.2 ± 4.53%

N#CC1=C(N)OC2=C(CC(=O)CC2)C1c1ccccc1 (stereo not shown) [Compound 4a, 2-Amino-6-oxo-4-phenyl-5,6,7,8-tetrahydro-4H-chromene-3-carbonitrile]
% of inhibition at 50 μM, hRNMT [1]: high inhibitions | IC50 [1]: < 0.05 µM | inhibition at 50 µM [1]: 92.3 ± 5.41% | inhibition at 50 µM [2]: 89.3 ± 7.89% | IC50 (SARS-CoV nsp14): 0.63 ± 0.32 µM | inhibition at 50 µM (SARS-CoV nsp14): 93.4 ± 3.68%

CCOC(=O)C1=C(N)OC2=C(c3sc(=S)n(-c4ccccc4)c3CC2)C1c1ccc(Cl)cc1 (stereo not shown) [Compound 23d, Ethyl 7-amino-9-(4-chlorophenyl)-3-phenyl-2-thioxo-3,4,5,9-tetrahydro-2H-chromeno[6,5-d]thiazole-8-carboxylate]
IC50 [1]: < 0.05 µM | inhibition at 50 µM [1]: 68.6 ± 6.42% | inhibition at 50 µM [2]: 72.3 ± 5.58% | IC50 (SARS-CoV nsp14): 0.49 ± 0.13 µM | inhibition at 50 µM (SARS-CoV nsp14): 57.7 ± 4.26%

CCOC(=O)c1c(N)sc2c1CCC1=C2C(c2ccccc2)C(C#N)=C(N)O1 (stereo not shown) [Compound 6d, Ethyl 2,7-diamino-8-cyano-9-phenyl-5,9-dihydro-4H-thieno[2,3-f]chromene-3-carboxylate]
IC50 [1]: 10.5 ± 2.69 µM | inhibition at 50 µM [1]: 40.3 ± 6.27% | inhibition at 50 µM [2]: 36.3 ± 5.22% | IC50 (SARS-CoV nsp14): 26.7 ± 5.73 µM | inhibition at 50 µM (SARS-CoV nsp14): 42.6 ± 4.65%

COc1ccc(C2C(C#N)=C(N)OC3=C2CC(=O)CC3)cc1 (stereo not shown) [Compound 4c, 2-Amino-4-(4-methoxyphenyl)-6-oxo-5,6,7,8-tetrahydro-4H-chromene-3-carbonitrile]
IC50 [1]: 32.6 ± 1.7 µM | inhibition at 50 µM [1]: 51.7 ± 4.62% | inhibition at 50 µM [2]: 49.4 ± 6.92% | IC50 (SARS-CoV nsp14): 16.4 ± 2.7 µM | inhibition at 50 µM (SARS-CoV nsp14): 34.6 ± 4.62%

CCOC1C(C#N)=C(O)OC2=C1c1sc(=S)n(-c3ccccc3)c1CC2 (stereo not shown) [Compound 20b, 9-Ethoxy-7-hydroxy-3-phenyl-2-thioxo-3,4,5,9-tetrahydro–2H-chromeno[6,5-d]thiazole-8-carbonitrile]
IC50 [1]: 18.8 ± 5.36 µM | inhibition at 50 µM [1]: 39.5 ± 6.83% | inhibition at 50 µM [2]: 41.4 ± 4.93% | IC50 (SARS-CoV nsp14): 32.6 ± 3.8 µM | inhibition at 50 µM (SARS-CoV nsp14): 36.1 ± 6.83%

N#CC1=C(N)OC2=C(C=C(c3c(N)nn(-c4ccccc4)c3N)CC2)C1c1ccccc1Cl (stereo not shown) [Compound 9b, 2-Amino-4-(2-chlorophenyl)-6-(3,5-diamino-1-phenyl-1H-pyrazol-4-yl)-7,8-dihydro-4H-chromene-3-carbonitrile]
% of inhibition at 50 μM, hRNMT [1]: high inhibitions | IC50 [1]: 1.91 ± 1.32 µM | inhibition at 50 µM [1]: 90.3 ± 5.2% | inhibition at 50 µM [2]: 96.1 ± 2.48% | IC50 (SARS-CoV nsp14): 0.36 ± 0.2 µM | inhibition at 50 µM (SARS-CoV nsp14): 93.3 ± 4.17%

CCOC(=O)C1=C(N)OC2=C(c3sc(=S)n(-c4ccccc4)c3CC2)C1c1ccccc1 (stereo not shown) [Compound 23c, Ethyl 7-amino-3,9-diphenyl-2-thioxo-3,4,5,9-tetrahydro-2H-chromeno[6,5-d]thiazole-8-carboxylate]
IC50 [1]: 70.3 ± 3.8 µM | inhibition at 50 µM [1]: 59.3 ± 4.68% | inhibition at 50 µM [2]: 70.4 ± 5.63% | IC50 (SARS-CoV nsp14): 28.4 ± 3.26 µM | inhibition at 50 µM (SARS-CoV nsp14): 64.3 ± 5.53%

Nc1ncnc2c1ncn2[C@@H]1O[C@H](C[C@@H](N)CC[C@H](N)C(=O)O)[C@@H](O)[C@H]1O [Sinefungin, reference compound]
IC50 [1]: < 0.05 µM | inhibition at 50 µM (SARS-CoV nsp14): 98.36 ± 0.23%

CCOC(=O)c1c(N)sc2c1CCC1=C2C(c2ccc(OC)cc2)C(C#N)=C(N)O1 (stereo not shown) [Compound 6f, Ethyl 2,7-diamino-8-cyano-9-(4-methoxyphenyl)-5,9-dihydro-4H-thieno[2,3-f]chromene-3-carboxylate]
IC50 [1]: 1.26 ± 0.58 µM | inhibition at 50 µM [1]: 62.5 ± 5.84% | inhibition at 50 µM [2]: 44.8 ± 5.08% | IC50 (SARS-CoV nsp14): 36.4 ± 4.51 µM | inhibition at 50 µM (SARS-CoV nsp14): 58.3 ± 3.65%

CCOC(=O)c1c(N)sc2c1CCC1=C2C(c2ccccc2Cl)C(C#N)=C(N)O1 (stereo not shown) [Compound 6e, Ethyl 2,7-diamino-9-(2-chlorophenyl)-8-cyano-5,9-dihydro-4H-thieno[2,3-f]chromene-3-carboxylate]
% of inhibition at 50 μM, hRNMT [1]: high inhibitions | IC50 [1]: 0.29 ± 0.08 µM | inhibition at 50 µM [1]: 80.2 ± 6.28% | inhibition at 50 µM [2]: 92.5 ± 6.9% | IC50 (SARS-CoV nsp14): 0.39 ± 0.25 µM | inhibition at 50 µM (SARS-CoV nsp14): 89.2 ± 8.27%

N#CC1=C(N)OC2=C(c3sc(=S)n(-c4ccccc4)c3CC2)C1c1ccc(Cl)cc1 (stereo not shown) [Compound 23b, 7-Amino-9-(4-chlorophenyl)-3-phenyl-2-thioxo-3,4,5,9-tetrahydro-2H-chromeno[6,5-d]thiazole-8-carbonitrile]
% of inhibition at 50 μM, hRNMT [1]: high inhibitions | IC50 [1]: < 0.05 µM | inhibition at 50 µM [1]: 96.4 ± 7.24% | inhibition at 50 µM [2]: 96.3 ± 8.92% | IC50 (SARS-CoV nsp14): 0.35 ± 0.15 µM | inhibition at 50 µM (SARS-CoV nsp14): 94.5 ± 6.83%

CCOC(=O)CSC(Nc1ccccc1)=C1C(=O)CCC2=C1C(c1ccccc1Cl)C(C#N)=C(N)O2 (stereo not shown) [Compound 16, Ethyl 2-(((2-amino-4-(2-chlorophenyl)-3-cyano-6-oxo-7,8-dihydro-4H-chromen-5(6H)-ylidene)(phenylamino)methyl)thio)acetate]
% of inhibition at 50 μM, hRNMT [1]: high inhibitions | IC50 [1]: 1.29 ± 0.98 µM | inhibition at 50 µM [1]: 90.3 ± 4.66% | inhibition at 50 µM [2]: 84.3 ± 6.29% | IC50 (SARS-CoV nsp14): 0.53 ± 0.18 µM | inhibition at 50 µM (SARS-CoV nsp14): 89.2 ± 6.58%

CC1=CSC(=C2C(=O)CCC3=C2C(c2ccccc2Cl)C(C#N)=C(N)O3)N1c1ccccc1 (stereo not shown) [Compound 15, 2-Amino-4-(2-chlorophenyl)-5-(4-methyl-3-phenylthiazol-2(3H)-ylidene)-6-oxo-5,6,7,8-tetrahydro-4H-chromene-3-carbonitrile]
% of inhibition at 50 μM, hRNMT [1]: high inhibitions | IC50 [1]: 4.91 ± 2.34 µM | inhibition at 50 µM [1]: 87.3 ± 6.42% | inhibition at 50 µM [2]: 90.4 ± 5.68% | IC50 (SARS-CoV nsp14): 22.6 ± 3.58 µM | inhibition at 50 µM (SARS-CoV nsp14): 89.2 ± 5.83%

CCOC(=O)c1c(N)sc2c1CCc1c-2sc(=S)n1-c1ccccc1 [Compound 21b, Ethyl 7-amino-3-phenyl-2-thioxo-2,3,4,5-tetrahydrothieno[2',3':3,4]benzo[1,2-d]thiazole-6-carboxylate]
% of inhibition at 50 μM, hRNMT [1]: high inhibitions | IC50 [1]: 0.94 ± 0.36 µM | inhibition at 50 µM [1]: 88.2 ± 5.38% | inhibition at 50 µM [2]: 90.4 ± 6.53% | IC50 (SARS-CoV nsp14): 1.08 ± 0.58 µM | inhibition at 50 µM (SARS-CoV nsp14): 87.2 ± 5.36%

COc1ccc(C2C(C#N)=C(N)OC3=C2c2sc(N)c(C#N)c2CC3)cc1 (stereo not shown) [Compound 6c, 2,7-Diamino-9-(4-methoxyphenyl)-5,9-dihydro-4H-thieno[2,3-f]chromene-3,8-dicarbonitrile]
% of inhibition at 50 μM, hRNMT [1]: high inhibitions | IC50 [1]: < 0.05 µM | inhibition at 50 µM [1]: 92.2 ± 5.22% | inhibition at 50 µM [2]: 92.2 ± 5.22% | IC50 (SARS-CoV nsp14): 0.45 ± 0.19 µM | inhibition at 50 µM (SARS-CoV nsp14): 88.2 ± 4.26%
